We go through 10 compounds from patent US8524702B2, “Substituted benzoazepines as toll-like receptor modulators” (VentiRx Pharmaceuticals, Inc., priority 2009, dated 2013).

In general, EC50 refers to the concentration at which the effect is half-maximal.

Format in all cases: cell-based
The target of experiment [1] is T1, TLR8 (Homo sapiens, UniProt Q9NR97).
T1 sequence (Q9NR97 27-1041): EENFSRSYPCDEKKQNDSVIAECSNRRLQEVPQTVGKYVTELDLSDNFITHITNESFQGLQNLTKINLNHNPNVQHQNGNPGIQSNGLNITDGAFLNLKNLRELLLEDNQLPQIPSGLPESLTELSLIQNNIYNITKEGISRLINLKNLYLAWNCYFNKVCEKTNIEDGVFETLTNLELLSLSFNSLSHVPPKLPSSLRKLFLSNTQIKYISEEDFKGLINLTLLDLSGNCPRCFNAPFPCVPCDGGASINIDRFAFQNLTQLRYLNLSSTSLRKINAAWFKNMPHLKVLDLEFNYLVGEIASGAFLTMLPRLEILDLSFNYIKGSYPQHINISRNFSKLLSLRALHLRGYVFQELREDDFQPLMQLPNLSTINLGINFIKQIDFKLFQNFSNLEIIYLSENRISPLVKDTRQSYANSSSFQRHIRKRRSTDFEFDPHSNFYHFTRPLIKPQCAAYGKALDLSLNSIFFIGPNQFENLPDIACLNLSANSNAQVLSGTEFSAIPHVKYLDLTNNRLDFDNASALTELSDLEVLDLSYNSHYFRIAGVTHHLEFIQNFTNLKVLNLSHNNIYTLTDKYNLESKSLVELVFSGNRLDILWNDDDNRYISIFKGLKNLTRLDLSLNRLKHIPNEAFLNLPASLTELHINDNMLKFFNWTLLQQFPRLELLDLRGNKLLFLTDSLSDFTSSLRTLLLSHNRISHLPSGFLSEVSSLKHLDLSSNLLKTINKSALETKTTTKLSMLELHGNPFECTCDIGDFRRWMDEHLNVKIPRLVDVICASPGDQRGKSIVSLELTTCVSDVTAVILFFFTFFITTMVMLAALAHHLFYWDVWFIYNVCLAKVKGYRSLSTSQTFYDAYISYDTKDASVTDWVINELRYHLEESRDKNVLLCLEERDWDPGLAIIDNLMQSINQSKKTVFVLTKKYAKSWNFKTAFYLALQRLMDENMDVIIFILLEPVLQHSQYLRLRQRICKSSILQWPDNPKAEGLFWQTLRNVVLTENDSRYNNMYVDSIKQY
The experiment in a line: TLR8 activity, MC50 values (procedure only by reference to Gorden et al. and Zhu et al.). The note with it: assay format not given. The text has this:
(§1) Activity of the compounds can be assessed according to procedures described in, e.g., Gorden et al., Journal of Immunology 177, pp. 8164-8170 (2006) and Zhu et al., Molecular Immunology, vol. 45 (11), pp. 3238-3242 (2008).
MC50 values for TLR8 activity are, for example, as shown below: […]

Experiment [2] addresses T1, TLR8. Description: PBMC assay for TLR8 (TNFα in supernatants by ELISA). Also on record: Peripheral blood mononuclear cells (PBMCs) from human blood were isolated; endogenous in cells; host or cells: human PBMCs. The note with it: human PBMCs incubated with compound overnight, MC50 = concentration at which 50% of the maximum induction is seen. Summed up:
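Human PBMCs were incubated overnight with compound. TNFα (TLR8) and IFNα (TLR7) in supernatants were quantified by ELISA. MC50 values are reported in order-of-magnitude bins (nM).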

In experiment [3] the target is T2, TLR7 (Homo sapiens, UniProt Q9NYK1).
T2 sequence (Q9NYK1 27-1049): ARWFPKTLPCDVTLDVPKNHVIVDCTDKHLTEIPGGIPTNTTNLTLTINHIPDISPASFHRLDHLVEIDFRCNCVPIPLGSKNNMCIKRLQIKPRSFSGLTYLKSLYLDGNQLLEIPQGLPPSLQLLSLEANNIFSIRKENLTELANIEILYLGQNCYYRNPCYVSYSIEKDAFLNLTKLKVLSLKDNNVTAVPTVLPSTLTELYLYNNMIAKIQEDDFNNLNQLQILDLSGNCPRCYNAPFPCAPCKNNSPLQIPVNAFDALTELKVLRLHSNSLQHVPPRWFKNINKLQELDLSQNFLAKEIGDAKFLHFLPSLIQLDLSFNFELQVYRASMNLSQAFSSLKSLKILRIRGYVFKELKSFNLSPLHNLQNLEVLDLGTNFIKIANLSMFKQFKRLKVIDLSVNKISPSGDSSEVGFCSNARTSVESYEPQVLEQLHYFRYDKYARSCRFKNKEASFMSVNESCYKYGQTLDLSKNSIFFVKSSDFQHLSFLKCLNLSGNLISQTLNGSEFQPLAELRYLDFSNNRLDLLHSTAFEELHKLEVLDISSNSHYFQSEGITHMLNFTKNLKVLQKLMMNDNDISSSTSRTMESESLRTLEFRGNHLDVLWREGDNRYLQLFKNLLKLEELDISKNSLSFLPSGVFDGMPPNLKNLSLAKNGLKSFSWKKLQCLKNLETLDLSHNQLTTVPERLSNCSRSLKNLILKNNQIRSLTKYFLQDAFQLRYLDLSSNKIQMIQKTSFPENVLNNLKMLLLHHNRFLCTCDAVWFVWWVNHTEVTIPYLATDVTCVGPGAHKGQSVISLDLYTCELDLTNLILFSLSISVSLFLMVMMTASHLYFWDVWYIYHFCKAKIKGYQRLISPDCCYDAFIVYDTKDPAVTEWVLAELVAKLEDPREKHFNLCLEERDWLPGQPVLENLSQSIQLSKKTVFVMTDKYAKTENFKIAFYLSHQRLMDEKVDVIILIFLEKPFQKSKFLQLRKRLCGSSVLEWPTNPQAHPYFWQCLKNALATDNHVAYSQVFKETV
The experiment in a line: PBMC assay for TLR7 (IFNα in supernatants by ELISA). Also on record: Peripheral blood mononuclear cells (PBMCs) from human blood were isolated; endogenous in cells; host or cells: human PBMCs. The following applies: human PBMCs incubated with compound overnight, MC50 = concentration at which 50% of the maximum induction is seen. As for the experimental part: Peripheral blood mononuclear cells (PBMCs) from human blood were isolated using BD Vacutainer Cell Preparation Tubes with sodium citrate. Cells were incubated with compound overnight. TLR8 activity was assayed by measuring the amount of TNFα in supernatants by ELISA. TLR7 activity was assayed by measuring the amount of IFNα in supernatants by ELISA (R&D Systems). […] The results of this assay are shown below in Tables 2 and 3.
MC50 numbers are represented as factors of ten, for example, + indicates an MC50 value of ×10^4, or a value in the tens of thousands of nanomolar (nM range); ++ indicates an MC50 value of ×10^3, or a value in the thousands; +++ indicates an MC50 value of ×10^2, or a value in the hundreds; and ++++ indicates an MC50 value of ×10^1 or 10°, or a value in the tens or ones.
(In general: In an ELISA, binding on a coated surface is turned into a signal by an enzyme label.)

Experiment [4] has as its target T2, TLR7. The experiment in a line: TLR7 activity, MC50 values (procedure only by reference to Gorden et al. and Zhu et al.). The note with it: assay format not given.
From the text: as §1
MC50 values for TLR7 activity are, for example, as shown below: […]

Turning to `CCCN(C[C@@H](C)O)C(=O)C1=Cc2ccc(-c3ccc(C(=O)N4CCCC4)cc3)cc2N=C(N)C1` (single isomer, unassigned) [Compound 106], the values for the half-maximal effective concentration (EC50) on TLR8 [1], on TLR8 [2] and on TLR7 [3] were 0.01 µM, 0.001 to 0.1 µM and 1 to 10 µM, respectively.
Taken in the same sequence, the figures for `CCCN(CCC)C(=O)C1=Cc2ccc(-c3ccc(C(=O)N(C)C)cc3)cc2N=C(N)C1` [Compound 124, (1E,4E)-2-amino-8-(4-(dimethylcarbamoyl)phenyl)-N,N-dipropyl-3H-benzo[b]azepine-4-carboxamide] were 0.104 µM, 0.1 to 1 µM and 1 to 10 µM.
For the compound `CCCN(CCC)C(=O)C1=Cc2ccc(-c3ccc(C(=O)N4CC[C@@H](O)C4)cc3)cc2N=C(N)C1` [Compound 127, (1E,4E)-2-amino-8-(4-((R)-3-hydroxypyrrolidine-1-carbonyl)phenyl)-N,N-dipropyl-3H-benzo[b]azepine-4-carboxamide], the figures for the EC50 at TLR8 [1], on TLR8 [2] and on TLR7 [3] were 0.004 µM, 0.001 to 0.1 µM and 1 to 10 µM, respectively.
`CCCN(CCC)C(=O)C1=Cc2ccc(-c3cncnc3)cc2N=C(N)C1` [Compound 135, (1E,4E)-2-amino-N,N-dipropyl-8-(pyrimidin-5-yl)-3H-benzo[b]azepine-4-carboxamide]: the EC50 at TLR7 [4] was 0.744 µM; on TLR8 [2], 0.001 to 0.1 µM; at TLR7 [3] it was 0.1 to 1 µM.
Take `CCOC(=O)C1=Cc2ccc(-c3ccncc3)cc2N=C(N)C1` [Compound 143, (1E,4E)-ethyl 2-amino-8-(pyridin-4-yl)-3H-benzo[b]azepine-4-carboxylate]: the EC50 at TLR8 [1] is 0.045 µM; on TLR8 [2], 0.001 to 0.1 µM.
Turning to `CCOC(=O)C1=Cc2ccc(-c3ccc(C(=O)N(C)C)cc3)cc2N=C(N)C1` [Compound 154, (1E,4E)-ethyl 2-amino-8-(4-(dimethylcarbamoyl)phenyl)-3H-benzo[b]azepine-4-carboxylate], the EC50 is 0.116 µM at TLR8 [1] and 0.1 to 1 µM on TLR8 [2].
For `CCCN(CC(N)=O)C(=O)C1=Cc2ccc(-c3ccc(C(=O)N4CCCC4)cc3)cc2N=C(N)C1` [Compound 178, (1E,4E)-2-amino-N-(2-amino-2-oxoethyl)-N-propyl-8-(4-(pyrrolidine-1-carbonyl)phenyl)-3H-benzo[b]azepine-4-carboxamide], the EC50 on TLR7 [4] was 0.767 µM; at TLR8 [2] it was 0.1 to 1 µM; on TLR7 [3], 0.1 to 1 µM.
Take `CCCN(CCCO)C(=O)C1=Cc2ccc(-c3ccc(C(=O)OCC)cc3)cc2N=C(N)C1` [Compound 190, Ethyl 4-((1E,4E)-2-amino-4-((3-hydroxypropyl)(propyl)carbamoyl)-3H-benzo[b]azepin-8-yl)benzoate]: the half-maximal effective concentration (EC50) at TLR8 [1] is 0.196 µM; on TLR8 [2], 0.1 to 1 µM; on TLR7 [3] it was 10 to 100 µM.
Turning to `CCCN(CCC)C(=O)C1=Cc2ccc(-c3ccc(C(=O)OC)nc3)cc2N=C(N)C1` [Compound 212, Methyl 5-((1E,4E)-2-amino-4-(dipropylcarbamoyl)-3H-benzo[b]azepin-8-yl)picolinate], the concentration giving a half-maximal response (EC50) at TLR8 [2] is 0.1 to 1 µM; on TLR7 [3] it was 1 to 10 µM.
On to `CCCN(CCCO)C(=O)C1=Cc2ccc(-c3ccc(/C=C/C(=O)OCC)cc3)cc2N=C(N)C1` [Compound 220, (E)-Ethyl 3-(4-((1E,4E)-2-amino-4-((3-hydroxypropyl)(propyl)carbamoyl)-3H-benzo[b]azepin-8-yl)phenyl)acrylate], for which the concentration for a half-maximal effect (EC50) at TLR8 [2] lay within 0.1 to 1 µM; on TLR7 [3], 10 to 100 µM.
